Measurements: patent publication US20230090742A1, “AMINOPYRIMIDINYLAMINOBENZONITRILE DERIVATIVES AS NEK2 INHIBITORS” (Sumitomo Pharma Oncology, Inc., priority 2020, published 2023)

Legend:
[1] = system: phosphorylation of PP1α and HEC1; assay: Western blot analysis for phospho-PP1α and phospho-Hec1 in cell cycle synchronized MDA-MB-231 cells; type: cell-based; conditions: double thymidine block and nocodazole, 10, 50, 100, and 500 nM
Protocol: (§1) Reagents. MDA-MB-231 (Breast adenocarcinoma, triple negative breast cancer) and SW480 (colorectal adenocarcinoma, stem-like subtype) cells were purchased from ATCC and cultured as per manufacturer's instruction. Thymidine (Sigma, T9250) stock solution (100 mM) was prepared in PBS. 2′-Deoxycytidine (Sigma, D897) stock solution (240 mM) was prepared in distilled H2O. Nocodazole (Selleck Chemicals, S2775) stock solution (5 mg/mL) was made in dimethyl sulfoxide (DMSO). FxCycle Far Red stain (F10348) for cell cycle analysis was purchased from Thermo Fisher Scientific.
Antibodies. […]
Cell Cycle Synchronization. […] Effectiveness of NEK2 inhibitors (Cmpd-16 and Cmpd-18) were assessed by adding small molecule inhibitors with nocodozole at 10, 50, 100, and 500 nM concentration at the time of nocodazole addition. […]
Immunoblot Analysis. […] Whole cell lysates were sonicated and centrifuged at 16000×g for 10 minutes at 4° C., and protein concentration of the supernatant were determined using BCA Protein assay kit (ThermoScientific, 23225). Equal amounts of protein lysates (30 μg/lane and 10 μg/lane only for Histone H3 immunoblots) were fractionated on a NuPAGE Novex 4%-12% Bis-Tris Protein Gel (Thermo Fisher Scientific, NP0335BOX) and transferred onto a low fluorescence PVDF membrane (Millipore, IPFL07810). […] Li-Cor Image Studio software was used for western blot analysis and quantification

[2] = system: EZH2 expression; assay: Flow cytometry analysis for EZH2 expression in SW480 cells; type: cell-based; conditions: Homo sapiens, 24 hours treatment, 0-1000 nM, haploid and diploid cells, read-out: dose dependent decrease in EZH2 expression, IC50
Protocol: as §1
Antibodies. Polyclonal antibodies to phosphorylated-Ser55 Hec1 (PA5-85846; 1:1000) were purchased from ThermoFisher Scientific, and Phospho-Thr320 PP1α (2581S; 1:1000) and Total PP1α (2582S; 1:1000) were purchased from Cell Signaling Technologies. Monoclonal antibodies to Phospho-Ser10 Histone H3 (53348S; 1:1000), Total Histone H3 (14269; 1:5000), and EZH2-FITC (30233, 1:50) antibodies were purchased from Cell Signaling Technologies; Total Hec1 (ab109496; 1:10000) was purchased from Abcam; and Total NEK2 (sc-55601; 1:200) and GAPDH (sc-365062; 1:1000-2000) antibodies were purchased from Santa Cruz Technologies.
Flow Cytometry Analysis. […] A minimum of 100,000 events were analyzed in each sample, and the results were evaluated using FlowJo software. […]

Q: How did the “phosphorylation of PP1α and HEC1 (HistoneH3 phosphorylation as marker of mitosis)” value [1] turn out when `N#Cc1c(Nc2nc(Nc3ccc(N4CCNCC4)cc3)ncc2Cl)cccc1OCc1ccccc1F` [Compound 16, 2-((5-chloro-2-((4-(piperazin-1-yl)phenyl)amino)pyrimidin-4-yl)amino)-6-((2-fluorobenzyl)oxy)benzonitrile] was run?
A: more specifically inhibited phosphorylation of PP1α and HEC1 without interfering in cell cycle progression than Cmpd-18

Q: And the IC50 [2]?
A: 184 nM
